Experimental data taken from patent US6888033B1, “Anti-viral compounds” (Cytoclonal Pharmaceutics, Inc., priority 1996, dated 2005).
Where two headings read alike, the source gives them in different places.

Experiments:
[1] = molecular target: T1, Recombinant HRV-1A 3C protease (Human rhinovirus 1A, UniProt P23008); test: HRV 3C Protease Inhibition Assay - HPLC Method; format: biochemical; settings: Km value of 1.9 mM, overnight incubation
T1 construct: HRV-1A 3C protease was produced in E. Coli [BL21(DE3)pLysS] containing the protease gene; made in house; host or cells: E. coli BL21(DE3)pLysS, T7 expression vector
T1 sequence (P23008 1515-1697): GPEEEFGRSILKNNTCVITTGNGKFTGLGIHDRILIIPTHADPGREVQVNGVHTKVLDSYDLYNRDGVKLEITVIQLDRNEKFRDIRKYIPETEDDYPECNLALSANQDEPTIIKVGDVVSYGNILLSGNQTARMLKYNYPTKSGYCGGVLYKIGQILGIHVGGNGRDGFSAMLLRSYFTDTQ

[2] = molecular target: T2, HRV 3C protease (Human rhinovirus 1A, UniProt P23008); test: Inhibition of 3C protease cleavage activity, peptide cleavage assay with reverse phase HPLC; format: biochemical
T2 construct: 2.5 μg of HRV 3C protease
T2 sequence (P23008 1515-1697): as above
Description: Next, the inhibition of 3C protease activity was measured by using a cleavage assay. […] Specific cleavage of this peptide [(N-Ac)Arg-Ala-Glu-Leu-Gln-Gly-Pro-[…]-Asp-Glu] (SEQ ID NO:2) by HRV 3C provided two pentapeptides. In a typical experiment 80 μg of peptide, dissolved in 100 mM TRIS (pH 8) and 100 mM NaCl, was incubated at 35° C. with 2.5 μg of HRV 3C protease with and without DIF1, to give a total volume of 30 μl. In both cases 3C was suspended in a buffered solution (40 mM Tris-HCL, pH 8.0, 100 mM, NaCl, 1 mM DTT, 1 mM EDTA), 2.5 mg of DIF1 (dissolved in 1 ml of ethanol) was used, corresponding to a concentration of 270 μM. Inhibitory effects due to the organic solvent were not observed; nevertheless, 10 μl of ethanol were added to the control. Aliquots were drawn at short intervals (within ca. 40 min.) and quenched with an equal volume of 1% TFA in Methanol (HPLC grade). […]
The degree of 3C protease inhibition by DIF1 was found by integration of peak areas under the 280 nm absorption curve. The degree of cleavage was calculated as the ratio of peak areas corresponding to peptide alone and peptide plus GPYDE (SEQ ID NO:3) product. Quantification was based on the initial, linear portion of the absorption curve, which represents less than 20% cleavage.

[3] = tested on: elastase; test: Elastase cleavage activity (specificity); format: biochemical; settings: 50 mM DIF1
Description: (§1) The specificity of DIF1 as an enzyme inhibitor was tested using cleavage assays for a number of other enzymes, including elastase, cathepsin B, chymotripsin, papain and ficin A. Elastase was particularly important because it is present in […], so that inhibition of its activity could potentially be highly toxic. […] The experimental method was as follows.
The cleavage activity of elastase was determined in 0.1 M Tris-HCl pH 7.0 buffer containing 20 μg/ml enzyme and its synthetic substrate. N-succinyl-Ala-Ala-Ala-p-nitroanilide.

[4] = molecular target: cathepsin B (Homo sapiens, UniProt P07858); test: Cathepsin B cleavage activity (specificity); format: biochemical; settings: all DIF1 concentrations tested
Description: as §1
(§2) The cleavage activity for cathepsin B was assayed according to the method of Bajowski an Frankfater (Anal. Biochem. 68:119 (1975)). Chymotripsin was assayed in 0.1M KPi buffer pH 7.0 containing 0.04 μg/ml enzyme and 200 μM N-benzyl-L-tryosine ethyl ester (from a 20 mM stock in dimethyl sulfoxide). The reaction was monitored by spectrophotometry at 256 nm.

[5] = molecular target: chymotripsin (Bos taurus, UniProt P00766); test: Chymotripsin assay (specificity); format: biochemical; settings: all DIF1 concentrations tested
Description: as §1, §2

[6] = molecular target: T3, papain (Carica papaya, UniProt P00784); test: Papain assay (specificity); format: biochemical; settings: all DIF1 concentrations tested
T3 sequence (P00784 134-345): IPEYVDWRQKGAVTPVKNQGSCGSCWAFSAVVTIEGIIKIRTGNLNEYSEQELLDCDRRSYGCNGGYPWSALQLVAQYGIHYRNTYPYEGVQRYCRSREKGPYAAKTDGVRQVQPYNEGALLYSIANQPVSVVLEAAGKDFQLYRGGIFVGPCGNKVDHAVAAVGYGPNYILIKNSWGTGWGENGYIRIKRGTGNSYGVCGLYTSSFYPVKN
Description: as §1
(§3) Papain and Ficin were incubated for one hour in an activation solution containing 0.1 M KPi buffer pH 7.0. 0.5 mM cysteine, 20 mM EDTA and 65 μg enzyme. The assays were carried out by adding 20 μl aliquots from the activation mix to 0.1 M KPi buffer pH 7.0, containing 12.5 nM N-CBZ-p-Nitrophenyl ester. The reaction was monitored by spectrphotometry at 405 nm.

[7] = tested on: ficin A; test: Ficin assay (specificity); format: biochemical; settings: all DIF1 concentrations tested
Description: as §1, §3

[8] = tested on: human rhinovirus 14, strain 1059; test: Inhibition of virus in whole-cell assay (inhibition of cytopathic effect); format: cell-based
Description: H1-HeLa cells, obtained from ATCC (F-13824, 1958-CRL) were cultured in MEM (Minimum Essential Medium) supplemented with 10% heat-inactivated fetal calf serum (FCS) by incubation at 37° C, 5% CO2 (Biological Industry, Kibbuts Beit HaEmek, Israel).
96 well plates were seeded to 90% confluency. After 12-24 hrs of incubation, the cell's monolayer was washed with phosphate-buffered saline (PBS), and the cells were subsequently infected with ten-fold dilutions in PBS (log10) of human rhinovirus 14, strain 1059, obtained from ATCC.
For each concentration of compound, three rows of wells containing various dilutions of virus were used. After 1 h of incubation at room temperature, medium containing 3% FCS and various concentrations of compound to be tested was placed in the well. After 2 days incubation at 34° C, 5% CO2, the cells were fixed by 10% formaldehyde and stained with methylene blue to determine cell viability. The cytopathic effect of non-viable cells was arbitrarily set to 100% for the untreated viral infection, so that the effect of each compound on cell viability was determined according to this baseline. Each experiment was performed 5 times for each compound, and the inhibition of cytopathic effect (ICE50) for inhibition of viral activity was calculated. […] ICE50 refers to the concentration in which 50% of the cells remain viable after viral infection.

[9] = tested on: H1-HeLa cells; test: 50% toxic dose (TD50); format: cell-based

**Q.** With `COc1ccc(C(=O)c2ccccc2O)c(O)c1` [Compound 1, Dioxybenzone, reference compound] as the compound, how does the Ki [1] read?
**A.** Its Ki is 4700 ± 900 µM.

**Q.** Which Ki [1] does the source give for `O=C1C=CC(=O)c2c(O)cccc21` [Compound 3, Juglone, reference compound] here?
**A.** Its Ki is 630 ± 70 µM.

**Q.** Which Ki ([2]; HRV 3C protease, N-acetylated 10-mer peptide substrate, 35° C.) does the source give for `CCCCCC(=O)c1c(O)c(Cl)c(OC)c(Cl)c1O` [Compound 15, 1-(3,5-dichloro-2,6-dihydroxy-4-methoxyphenyl)-hexan-1-one] here?
**A.** The Ki was 220 µM.

**Q.** What about the “rate of substrate cleavage” value ([2]; in the presence of 270 μM DIF1) of the same compound?
**A.** The value was “decreased significantly”.

**Q.** And the Ki [1]?
**A.** Its Ki is 460 ± 80 µM.

**Q.** What about the “inhibition of cleavage activity of elastase” value [3] of the same compound?
**A.** Its value is “did not inhibit”.

**Q.** And the “effect on proteolytic activity of cathepsin B” value [4]?
**A.** The value was “not to effect”.

**Q.** And the “effect on proteolytic activity of chymotripsin” value [5]?
**A.** Its value is “not to effect”.

**Q.** And the “effect on proteolytic activity of papain” value [6]?
**A.** The value was “not to effect”.

**Q.** What about the “effect on proteolytic activity of ficin A” value [7] of the same compound?
**A.** The value was “not to effect”.

**Q.** And the IC50 ([8]; Rhinovirus B, H1-HeLa)?
**A.** The IC50 was 7.5 µM.

**Q.** And the TD50 [9]?
**A.** Its TD50 is 30.

**Q.** For `CCCCCC(=O)c1c(O)c(Cl)c(O)c(Cl)c1OC` [Compound 16, 1-(3,5-dichloro-2,4-dihydroxy-6-methoxyphenyl)-hexan-1-one], which Ki [1] is on record?
**A.** Its Ki is 390 ± 30 µM.

**Q.** What about the IC50 ([8]; Rhinovirus B, H1-HeLa cells, HRV 14, Table 2, Formula V, read-out: IC50) of the same compound?
**A.** The IC50 was 3 µM.

**Q.** What about the TD50 [9] of the same compound?
**A.** The TD50 was 40.

**Q.** With `CCCCCC(=O)c1c(O)c(Cl)c(O)c(Cl)c1O` [Compound 20] as the compound, how does the Ki [1] read?
**A.** The Ki was 460 ± 60 µM.

**Q.** And the TD50 [9]?
**A.** The TD50 was 1875.

**Q.** Which “TD50” value ([9]; Table 1, Formula IV) does the source give for `COc1cc(O)cc(O)c1C(C)=O` [Compound 23, 2,4-dihydroxy-6-methoxy acetophenone] here?
**A.** The value was 220 µM.

**Q.** For `COc1cc(O)c(Cl)c(O)c1C(C)=O` [Compound 25], which Ki [1] is on record?
**A.** Its Ki is 3000 ± 1500 µM.

**Q.** What about the IC50 ([8]; Rhinovirus B, 48 h, H1-HeLa cells, HRV 14, 2 days at 34° C, Table 1, Formula IV, read-out: ICE50) of the same compound?
**A.** The IC50 was 11 µM.

**Q.** And the “TD50” value ([9]; human)?
**A.** Its value is 22 µM.

**Q.** What about the melting point of the same compound?
**A.** The melting point was 187.5 to 189 °C.

**Q.** For `COC(CCO)CC(O)C(=O)c1ccccc1` (stereo not drawn) [Compound 107, 2,6-dihydroxy-4-methoxyhexanophenone], which melting point is on record?
**A.** The melting point was 121 °C.

**Q.** With `COCCC(O)CC(O)C(=O)c1ccccc1` (stereo not drawn) [Compound 108, 2,4-dihydroxy-6-methoxyhexanophenone] as the compound, how does the melting point read?
**A.** Its melting point is 109 °C.

**Q.** Which IC50 ([8]; H1-HeLa cells, HRV 14, 2 days at 34° C, Table 1, Formula IV, read-out: ICE50) does the source give for `CC(=O)c1c(O)c(Cl)cc(Cl)c1O` [Compound 109] here?
**A.** The IC50 was 1250 µM.

**Q.** And the “TD50” value [9]?
**A.** The value was 5000 µM.

**Q.** Which TD50 [9] does the source give for `O=C(CCc1ccc(O)cc1)c1c(O)cc(O)cc1O` [Formula VIII, Z′=OH, Y′=H, R3=OH, Y=H, phloretin] here?
**A.** The TD50 was 160.
